In data set [1] the test system is indometacin ulcer of rats. Nature of the data set: indometacin ulcer of rats (method of John and Adrian modified by Wilhelmi). In kind it is in vivo, Albino rats of the strain SIV 50. To be noted: for ULCER PROTECTING EFFECT: indometacin 20 mg/kg, 24 h. As to the method: These tests were carried out according to the method of John and Adrian modified by Wilhelmi on the indometacin ulcer of rats (see Arzeimittelforschung Vol. 19 (1969) pages 45 et seq.).
The determination is carried out in the following manner.
Albino rats of the strain SIV 50 (S. Ivanovas, Kisslegg/allgau) having an initial weight of 250 to 300 grams were held in controlled temperature rooms at 20° to 22°C. in wire cages (Ebeco, Type 3 double width) on a standard diet (Altromin). After 48 hour feeding intervals the animals received 20 mg/kg rat of indometacin in 1.5% tragacanth (1 ml tragacanth solution per 100 grams of rat) applied introgastrally.
One hour after giving the indometacin there was dispensed orally to the animals the test substance. The rats remain otherwise fasting (water ad libitum)
Twenty four hours after giving the indometacin the animals were killed with […]. The stomach was resected, opened along the great curvature and washed under flowing water.
The ulcerative changes appear as dark, point or stria shaped spots on the mucosa. The evaluation was done according to the method of Munchow Arneimittedforschung Vol. 4 (1954) pages 341-344.

Data set [2] in a line: ulcer healing / antiulcer activity, general statement (test not specified). In kind it is in vivo.
The nature of data set [3]: muscle relaxing activity.
Data set [4] is described as follows: acute toxicity in the mouse (method of Miller and Tainter). To be noted: in vivo, oral application. The protocol: The acute toxicity of the compound of the invention in the mouse (expressed by LD50 mg/kg; method of Miller and Tainter; Proc. Soc. Exper. Biol. a. Med. Vol 57 (1944) pages 261 et seq.) on oral application, for example is above 6000 mg/kg.
Data set [5] is described as follows: central nervous system influencing activity.
Data set [6] concerns histamine ulcers of guinea pigs. Nature of the data set: histamine type of ulcer of guinea pigs (method of Eagleton and Watt). It counts as in vivo. Particulars: oral, histamine diphosphate 5 mg/kg. As to the method:
The testing of the histamine type of ulcer of guinea pigs is carried out for example by the method of Eagleton and Watt (Peptic Ulcer, Pfeiffer, Munksgaard, Copenhagen, printed in Denmark by Aarhuus, Stiftsbogtrykkerie A/S Arhus ISBN 8716003225 pages 34-44). The entire disclosure of the Eagleton and Watt article is hereby incorporated by reference and relied upon. There were employed predominantly male guinea pigs weighing 300 to 400 grams and the test substance was applied orally after 24 hour feeding intervals and 12 hours deprivation of drinking water. One hour after giving the substance the guinea pigs were given the injection of histamine diphosphate (histamine acid phosphate) at a dosage of 5 mg/kg (the histamine diphosphate was employed in aqueous solution at a concentration of 1 mg histamine disphosphate/ml). The histamine diphosphate was injected introperitoneally. Three hours after the injection of histamine the animals were killed with CO2. The stomachs were resected and cut open along the small curvature and turned upside down over the examination finger. The ulcers were evaluated according to Munchow (Arzneimittelforschung Vol. 4 (1954 pages 341-344).
The calculated control index must in the order of magnitude between 5 and 15.

This is an account of results in patent US3956491A, “Medicine containing the main sapogenin of helleborus” (priority 1974, dated 1976).

Usually LD50 stands for the dose at which mortality reaches 50%. A lower LD50 goes with a more toxic substance.

Turning to `C=C1CC[C@@]2(OC1)O[C@H]1C[C@H]3[C@@H]4CC=C5C[C@@H](O)C[C@@H](O)[C@]5(C)[C@H]4[C@H](O)C[C@]3(C)[C@H]1[C@@H]2C` [Helleborus main sapogenin, spiro-5,25(27)-diene-1β,3β,11α-triol], the “ULCER PROTECTING EFFECT” value amounted to 58% in data set [1] (daily dosage 50 mg/kg, oral); 78% in data set [1] (daily dosage 100 mg/kg, oral); 80% in data set [1] (daily dosage 200 mg/kg, oral). The anti-ulcer activity result in data set [1] (indometacin ulcers of rats, oral) is listed as “good anti-ulcer activity”; in data set [6], “good anti-ulcer activity”. The minimal effective dose in data set [1] (po, orally, above mentioned animal experiments (indometacin ulcers of rats, histamine ulcers of guinea pigs), read-out: lowest effective dosage) was found to be 50 mg/kg. Moreover, the “antiulcer activity compared with Biogastrone” value in data set [2] (comparison with the known medicine Biogastrone) is “comparable to the activity of the known medicine Biogastrone”. Also, the ulcer healing activity entry in data set [2] (in vivo) is given as “has an ulcer healing activity”. For the same molecule, in data set [3], the muscle relaxing activity entry is on record as “muscle relaxing”. The molecule further showed an LD50 in data set [4] of more than 6000 mg/kg. Also, the “central nervous system influencing activity” value in data set [5] is reported as “central nervous system influencing activity has been established”.
